Patent US20080125435A1, “1-(Het)aryl-3-[hetaryl-piperidin-4-yl]-thioureas as modulators of the EP2 receptor” (priority 2006, published 2008)

Key:
[1] = test system: cumulus-ovum complexes (cumulus expansion); test: Cumulus expansion test in vitro; assay type: cell-based, mice; conditions: competing with natural EP2 receptor agonist PGE2
Procedure: In immature female mice (strain: CD1 (ICR) von Charles River), folliculogenesis is induced at an age of 14-18 days by a single administration (intraperitoneal) of 10 I.U. of PMSG (Pregnant Mare Serum Gonadotropin; Sigma G-4877, Lot 68H0909). 47-50 hours after the injection, the ovaries are removed and the cumulus-ovum complexes removed. At this stage, the cumulus complex is not yet expanded.
The cumulus-ovum complexes are now incubated for 20-24 hours with prostaglandin E2 (PGE2) (1 μM), vehicle control (ethanol) or test substances. Medium: alpha-MEM medium with 0.1 mM IBMX, pyruvate (0.23 mM) glutamine (2 mM), pen/strep 100 IU/ml pen. and 100 μg/ml strep.) and HSA (8 mg/ml)). The cumulus expansion is then assessed by classification into four stages (after Vanderhyden et al. Dev Biol. 1990 August; 140(2):307-317).

[2] = target: T1, EP2 subtype of the human PGE2 receptor (Homo sapiens, UniProt P43116); test: cAMP antagonism test (test for antagonism in the presence of PGE2); assay type: cell-based; conditions: in presence of agonist PGE2
T1 construct: host or cells: cells in a cell culture plate
Excerpt: (§1) The binding of PGE2 to the EP2 subtype of the human PGE2 receptor induces the activation of membrane adenylate cyclases and leads to the formation of cAMP. In the presence of the phosphodiesterase inhibitor IBMX, the cAMP accumulated through this stimulation and released by cell lysis is used in a competitive detection process. In this test, the cAMP in the lysate competes with cAMP-XL665 for the binding of an Eu cryptate-labeled anti-cAMP antibody. Here in the absence of cellular cAMP a maximal signal is produced, which is due to the coupling of this antibody to the cAMP-XL665 molecule. As a result, after excitation at 337 nm, a long-lasting emission signal at 665 nm (and at 620 nm) based on FRET (fluorescence resonance energy transfer) is produced. Both signals are measured in a suitable measuring instrument with time delay, i.e. after the background fluorescence has died away.
(§2) The substance solutions (0.75 μl) which contain 30% DMSO are placed in a test plate and are dissolved in 16 μl of a KRSB+IBMX stimulation solution (1× cancer Ringer bicarbonate buffer; Sigma-Aldrich # K-4002; including 750 μM 3-isobutyl-1-methylxanthine Sigma-Aldrich # 1-7018), then 15 μl of this are transferred into a media-free cell culture plate which has been washed with KRSB shortly beforehand.
After a 30-minute preincubation at room temperature (RT), 5 μl of a 4×PGE2 solution (11 nM) are added and incubated in the presence of the agonist for a further 60 mins at RT (volume: ˜20 μl), before the reaction is then stopped by addition of 5 μl of lysis buffer and the mixture is incubated for a further 20 mins at RT (volume: ˜25 μl). The cell lysate is then transferred onto an assay plate and assayed in accordance with the manufacturer's instructions (cyclic AMP kit Cisbio International # 62AMPPEC).

[3] = target: T1, EP2 subtype of the human PGE2 receptor; test: cellular agonism test (cAMP); assay type: cell-based
Excerpt: as §1
as §2, with “μl)” for “μl) which contain 30% DMSO are”, “and 30% DMSO” for “and”, “beforehand. […]” for “beforehand.”

T1 sequence (P43116 whole entry): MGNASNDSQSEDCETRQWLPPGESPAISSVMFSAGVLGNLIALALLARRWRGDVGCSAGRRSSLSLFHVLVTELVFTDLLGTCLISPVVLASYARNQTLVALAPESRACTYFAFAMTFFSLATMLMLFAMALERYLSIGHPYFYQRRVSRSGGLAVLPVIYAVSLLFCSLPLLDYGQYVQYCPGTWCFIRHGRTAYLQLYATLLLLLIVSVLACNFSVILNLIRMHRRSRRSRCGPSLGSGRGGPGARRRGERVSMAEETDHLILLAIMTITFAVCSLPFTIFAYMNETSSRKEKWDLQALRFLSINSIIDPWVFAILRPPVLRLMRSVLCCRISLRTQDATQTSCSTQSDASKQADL

Row | SMILES | suppression of the expansion of the cumulus ([1]; at a concentration of 100-200 μM) | IC50 [2] | activity in the cellular agonism test [3] | suppression of cumulus expansion ([1]; at a 10 times lower concentration than AH 6809 (100-200 μM))
1 | CC(C)Oc1ccc2c(=O)c3cc(C(=O)O)ccc3oc2c1 [AH 6809, reference compound] | ca. 30% |  |  | 
2 | CSc1ccc(NC(=S)NC2CCN(c3ccnc4cc(Cl)ccc34)CC2)cc1 [Example 1, 1-[1-(7-chloro-quinolin-4-yl)-piperidin-4-yl]-3-(4-methylsulfanyl-phenyl)-thiourea] |  | 2.7 µM |  | 
3 | S=C(Nc1ccccc1Br)NC1CCN(c2ccnc3cc(Cl)ccc23)CC1 [Example 8, 1-(2-bromo-phenyl)-3-(1-(7-chloro-quinolin-4-yl)-piperidin-4-yl)-thiourea] |  | 3.8 µM | no inhibition | 20%
4 | CSc1ccccc1NC(=S)NC1CCN(c2ccnc3cc(Cl)ccc23)CC1 [Example 14, 1-(1-(7-chloro-quinolin-4-yl)-piperidin-4-yl)-3-(2-methylsulfanyl-phenyl)-thiourea] |  | 3.4 µM |  | 
